Results as given in patent US20190381127A1, “COMBINATION THERAPY WITH A6, CHEMOTHERAPEUTIC AGENTS, RADIATION THERAPY, OR A COMBINATION THEREOF FOR THE TREATMENT OF CANCER” (Splash Pharmaceuticals, Inc., priority 2016, published 2019).
pIC50: −log10 of the molar value.

Columns and labels:
[1] = system: B16F10-DsRed cells; test: B16F10-DsRed Cell Lung Metastasis Model; type: in vivo, C57BL/6 mice; settings: for tumor burden in the lungs: A6 200 mg/Kg SC QD, day 12
Experimental: B16F10-DsRed cells were harvested from cells culture. 1×10^6 cells/200 μl were inoculated into DPBS/mouse via bilateral tail vein in 48 female C57BL/6 mice (Charles River).
Mice were randomized into six groups: Grp1 no treatment, Grp2 PTX (10 mg/Kg, IP on days 1 and 8), Grp3 DDP (4 mg/Kg, IP, day 1, 4 and 8), Grp4 A6 (200 mg/Kg, SC, QD), Grp5 A6 plus PTX, Grp6 A6 plus DDP. Animals were weighed before dosing and then twice a week.
Dosing: A6 dosing started immediately after cell inoculation and consecutively for 11 days; DDP/PTX dosing started immediately after inoculation and then on days as above. The study was ended on day 12, and the lungs were harvested to determine metastatic burden.

[2] = system: retina of diabetic rats; test: Streptozotocin diabetic retinopathy model; parameters: species or system Brown Norway rats; settings: rat, in vivo
[3] = system: ZAP-70pos B-cell lymphocytes isolated from individual patients; test: CLL xenograft model; type: in vivo, immune-deficient mice; settings: vs vehicle control
[4] = system: choroidal neovascularization; test: Laser-induced choroidal neovascularization (CNV); type: in vivo, mouse; settings: compared to the non-treated control group
[5] = system: breast cancer; test: Compassionate use, breast cancer patient; type: in vivo, human; settings: A6 150 mg/day for 9 years, after Taxol 268 mg daily for 2 weeks
Experimental: A6 was administered in combination with paclitaxel as a compassionate use.

[6] = system: HEY/C2 (DDP resistant) cells; test: CCK-8 cytotoxicity of DDP/PTX with or without A6; type: cell-based; settings: 100 μM A6; 72 hours; 10% FBS
Experimental: The cells were plated in 96-well plates as described and incubated overnight. […] The CCK-8 assay described herein was performed to access cytotoxicity of DDP/PTX.

[7] = system: CD44-nonexpressing A278 cells; test: Cell binding to HA coated plates; type: cell-based
Excerpt: A6 shares sequence homology with the Link Module of CD44. […] This effect was blocked with the anti-CD44 antibody, IM7. […] Without being bound by any particular A6 can induce conformational changes in CD44, resulting in either a lowered affinity of the epitope for DF1485, or preventing DF1485 from binding CD44. The binding of A6 to CD44 results in a modulation of CD44-mediated intracellular signaling and establishes a functional relationship between A6 and CD44 in CD44 expressing cells.

[8] = system: CD44-positive SKOV3 cells; test: Boyden chamber migration; type: cell-based, human; settings: compared to untreated control
[9] = system: human CLL B-cell lymphocytes; test: CLL B-cell lymphocytes in vitro
[10] = system: choroidal neovascularization; test: Laser-induced choroidal neovascularization (CNV); type: in vivo, rat; settings: subcutaneous injections; compared to non-treated controls
[11] = system: MDA-MB-231 human mammary carcinoma xenografts; test: Mammary carcinoma xenograft model; parameters: species or system BALB/c (nu/nu) mice; settings: mouse, in vivo
Experimental: (§1) Mammary: The effects of A6 in mammary tumor and metastasis models were investigated. […] The effect of A6 in Fisher rats inoculated with Mat B-111 syngeneic mammary carcinoma cells was evaluated.

[12] = system: B16-F10 melanoma cells; test: B16-F10 lung metastatic model; type: in vivo, C57BL/6 mice; settings: tail vein injection; lungs evaluated at day 11
Experimental: Melanoma: The well characterized B16-F 10 lung metastatic model was employed to determine the ability of A6 to inhibit the colonization of secondary tissues by circulating cancer cells. […] Melanoma cells were injected into the tail veins of C57BL/6 mice to simulate a burden of metastasizing cells and the lungs were then evaluated for lesions at day 11.

[13] = system: U87MG human glioma cells; test: Subcutaneous glioma xenograft; type: in vivo, BALB/c (nu/nu) mice
Experimental: Glioblastoma: In animal models of glioblastoma, U87MG human glioma cells were implanted subcutaneously or intracranially in BALB/c (nu/nu) mice and the animals were divided into different treatment groups. […] In this study the effects of cisplatin were also examined.

[14] = system: choroidal neovascularization; test: Laser-induced choroidal neovascularization (CNV); type: in vivo, primate; settings: intravitreal administration; relative to control
[15] = system: 2008/C13*5.25 cells; test: CCK-8 cytotoxicity, A6 plus DDP; type: cell-based, human; settings: A6 1, 10 or 100 μM 1 h, then 1 h A6 plus DDP; 10% FBS
Experimental: Conditions: Drugs: DDP (3.33 mM stock) and A6 (109.8 mM stock); Drug exposure time: 1 hour ; Cell line: 2008 and its DDP-resistant subline 2008/C31*5.25; Media: RPMI 1640 plus 10% FBS containing 1 mM penicillin/streptomycin; Cytotoxicity Assays: CCK-8 (Cell Counting Kit 8—Dojindo Molecular Technologies).
Tissue culture plates containing 96-well plates were seeded with 3000 cells in 100 μl of media per well. The wells on rows A-D were seeded with 2008 cells, while the wells on rows E-H were seeded with 2008/C13*5.25 cells. The cells were allowed to attach overnight in a 37° C. in 5% CO2 incubator. Approximately 24 h later medium was removed by aspiration and the cells were exposed to 0, 1, 10 or 100 μM A6 peptide in 100 μl. After 1 h, increasing concentrations of DDP were added to triplicate wells in 100 μl medium. Following a 1 h exposure to the combination of A6 and DDP, the drugs were removed by aspiration. The cells were then allowed to grow for 96 h following which the plates were assayed for relative cell growth with the CCK-8 assay.
(§2) CCK-8 assay. Five μl of CCK-8 stain was added to each well and the plate was incubated at 37° C. incubator for 4 h. The plate was read with a microplate reader at a wavelength of 450 nm.
(§3) The assay was performed using triplicate wells for each DDP concentration. […]

[16] = system: endometrial cancer with metastases to lymph nodes and lungs; test: Compassionate use, endometrial cancer patient; type: in vivo, human
Experimental: A second compassionate use patient was administered A6. The patient was diagnosed with endometrial cancer with metastases to lymph nodes and lungs. The patient underwent a hysterectomy followed by cisplatin and paclitaxel regimen. The patient started A6 1.5 mg/kg/day and continued on this regimen for 2 years with intermittent radiation therapy to the mediastinum to a total dose of 5,000 cGy. […] A6 increased to 2.0 mg/kg/day.

[17] = system: retinal microvascular endothelial cell invasion; test: HGF-induced retinal endothelial cell invasion; type: cell-based
Excerpt: The effect of A6 on HGF and its receptor, c-Met, in retinal angiogenesis has been examined.

[18] = system: Mat B-111 syngeneic mammary carcinoma cells; test: Syngeneic mammary carcinoma model; parameters: species or system Fisher rats; settings: rat, in vivo
Experimental: as §1

[19] = system: IGROV-1 cells; test: CCK-8 cytotoxicity, A6 plus DDP; type: cell-based, human; settings: A6 1, 10 or 100 μM 1 h, then 1 h A6 plus DDP
Experimental: Drugs: DDP (3.33 mM stock) and A6 (109.8 mM stock); Drug exposure time: 1 hour; Cell line: IGROV-1 and its DDP-resistant subline IGROV-1/CP; Media: RPMI 1640 plus 10% FBS containing 1 mM penicillin/streptomycin; Cytotoxicity Assays: CCK-8 (Cell Counting Kit 8—Dojindo Molecular Technologies).
Tissue culture plates containing 96-well plates were seeded with 4000 cells in 100 μl of media per well. The wells on rows A-D were seeded with IGROV-1 cells, while the wells on rows E-H were seeded with IGROV-1/CP cells. The cells were allowed to attach overnight in a 37° C. in 5% CO2 incubator. Approximately 24 h later medium was removed by aspiration and the cells were exposed to 0, 1, 10 or 100 μM A6 peptide in 100 μl. After 1 h, increasing concentrations of DDP were added to triplicate wells in 100 pa medium. Following a 1 h exposure to the combination of A6 and DDP, the drugs were removed by aspiration. The cells were then allowed to grow for 96 h following which the plates were assayed for relative cell growth with the CCK-8 assay.
CCK-8 assay. Five pi of CCK-8 stain was added to each well and the plate was incubated at 37° C. incubator for 4 h. The plate was read with a microplate reader at a wavelength of 450 nm.
as §3

[20] = molecular target: T1, CD44 (Homo sapiens, UniProt P16070); test: Cross-linking, immunoprecipitation and immunoblotting of SKOV3 lysates; type: binding; settings: SKOV3 cells bound and cross-linked to A6
T1 sequence (P16070 21-742): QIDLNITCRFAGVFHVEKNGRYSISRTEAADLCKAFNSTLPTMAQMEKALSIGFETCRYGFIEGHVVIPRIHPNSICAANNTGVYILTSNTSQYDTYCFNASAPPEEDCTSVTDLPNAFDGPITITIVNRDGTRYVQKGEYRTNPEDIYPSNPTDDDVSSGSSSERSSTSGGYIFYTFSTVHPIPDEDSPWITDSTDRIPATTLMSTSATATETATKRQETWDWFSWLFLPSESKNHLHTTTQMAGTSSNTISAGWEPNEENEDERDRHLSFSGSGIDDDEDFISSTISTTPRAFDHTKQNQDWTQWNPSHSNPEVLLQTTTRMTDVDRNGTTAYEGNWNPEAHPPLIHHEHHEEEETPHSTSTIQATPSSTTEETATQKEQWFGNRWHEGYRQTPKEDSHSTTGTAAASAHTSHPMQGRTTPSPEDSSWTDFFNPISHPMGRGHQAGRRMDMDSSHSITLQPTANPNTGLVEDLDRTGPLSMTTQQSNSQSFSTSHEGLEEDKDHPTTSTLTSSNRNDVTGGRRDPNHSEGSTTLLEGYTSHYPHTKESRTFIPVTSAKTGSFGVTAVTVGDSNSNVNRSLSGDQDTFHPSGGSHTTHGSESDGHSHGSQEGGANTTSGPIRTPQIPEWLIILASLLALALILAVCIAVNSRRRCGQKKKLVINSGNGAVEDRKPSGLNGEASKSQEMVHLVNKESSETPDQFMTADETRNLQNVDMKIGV
Experimental: Human ovarian SKOV3 cells were bound and cross-linked to A6. […] To determine if this binding influenced CD44-mediated activity, and to determine if a functional relationship existed between A6 and CD44, intracellular signaling studies were conducted.

[21] = system: A2780 cells; test: CCK-8 cytotoxicity, A6 plus DDP; type: cell-based, human; settings: A6 1, 10 or 100 μM 1 h, then 1 h A6 plus DDP; 10% FBS
Experimental: Study Conditions. Drugs: DDP (3.33 mM stock) and A6 (109.8 mM stock); Drug exposure time: 1 hour; Cell line: A2780 and its DDP-resistant subline A2780/CP; Media: RPMI 1640 plus 10% FBS containing 1 mM penicillin/streptomycin; Cytotoxicity Assays: CCK-8 (Cell Counting Kit 8—Dojindo Molecular Technologies).
Tissue culture plates containing 96-well plates were seeded with 4000 cells in 100 μl of media per well. The wells on rows A-D were seeded with A2780 cells, while the wells on rows E-H were seeded with A2780/CP cells. The cells were allowed to attach overnight in a 37° C. in 5% CO2 incubator. Approximately 24 h later medium was removed by aspiration and the cells were exposed to 0, 1, 10 or 100 μM A6 peptide in 100 μl. After 1 h, increasing concentrations of DDP were added to triplicate wells in 100 μl medium. Following a 1 h exposure to the combination of A6 and DDP, the drugs were removed by aspiration. The cells were then allowed to grow for 96 h following which the plates were assayed for relative cell growth with the CCK-8 assay.
as §2
The assay was performed using triplicate wells for each DDP concentration.

[22] = Clinical safety profile of A6 (summary); settings: human, in vivo
[23] = molecular target: T1, CD44; test: Perturbation of anti-CD44 antibody binding to SKOV3 cells
[24] = human, in vivo
[25] = system: human breast and ovarian cancer cell lines; test: Boyden chamber chemotaxis; type: cell-based; settings: responsive cell lines; read-out: IC50 for the inhibition of chemotaxis
Excerpt: A6 had no effect on the migration of CD44-negative A2780 cells. A6 was also shown to interfere with the binding of only one (DF1485) of the four anti-CD44 antibodies tested.

[26] = system: HEY (DDP sensitive) cells; test: CCK-8 cytotoxicity of DDP/PTX with or without A6; type: cell-based; settings: 100 μM A6; 72 hours; 10% FBS
Experimental: Effect of A6 plus Cisplatin (DDP) or Paclitaxel (PTX) in HEY (DDP sensitive) and HEY/C2 (DDP resistant) cells was tested. The cells were plated in 96-well plates as described and incubated overnight. The cells were treating with various doses of DDP/PTX in the absence or presence of 100 μM A6 in culture medium containing 10% FBS and incubated for 72 hours. The CCK-8 assay described herein was performed to access cytotoxicity of DDP/PTX.

Substance: Ac-KPSSPPEE-NH2 [A6, Ac-KPSSPPEE-NH2]
- tumor burden in the lungs ([1]; in the presence or absence of cisplatin): not significantly reduced
- tumor burden in the lungs ([1]; in the presence or absence of paclitaxel, 200 mg/kg): not significantly reduce
- antimetastatic activity of cisplatin or paclitaxel on addition of A6 ([1]; mouse, in vivo): did not increase antimetastatic activity
- increase in microvascular permeability in the retina [2]: inhibits the increase
- loss of vascular endothelial (VE)-cadherin [2]: prevents the loss
- reduction in CLL burden [3]: up to 90%
- inhibition of new vessel formation [4]: 95%
- clinical outcome [5]: complete remission
- sensitivity of cells to cisplatin [6]: did not affect sensitivity
- sensitivity of cells to paclitaxel [6]: did not affect sensitivity
- binding of cells to HA coated plates [7]: neither A6 nor IM7 had any effect
- inhibition of migration [8]: > 85%
- cytotoxicity in vitro [9]: direct, dose-dependent, cytotoxicity
- expression of CD44 and ZAP-70 [9]: down modulates
- reduction in CNV [10]: 70%
- metastasis [11]: An inhibition of metastasis was noted
- number of lung metastases, % of control [12]: 50%
- time to progression following discontinuation of treatment [13]: prolonged the time to progression
- reduction in CNV [14]: 71%
- modulation of sensitivity to DDP [15]: failed to modulate the sensitivity
- clinical outcome ([16]; 10+ years of biannual testing): no evidence of disease
- disease status ([16]; A6 1.5 mg/kg/day for 2 years with intermittent radiation therapy): Stable disease
- CA-125 ([16]; after A6 dose reduced to 0.25-0.5 mg/kg/day, increased from 25): 71 U/ml
- CA-125 ([16]; after A6 increased to 2.0 mg/kg/day): 22 U/ml
- CA-125, subsequent follow up ([16]; subsequent follow up): below 25 U/ml
- HGF-induced retinal endothelial cell invasion [17]: reduced to control levels
- lymph node metastasis [18]: markedly suppressed
- modulation of sensitivity to DDP [19]: failed to modulate the sensitivity
- direct interaction with CD44 [20]: binding to CD44
- modulation of sensitivity to DDP [21]: failed to modulate the sensitivity
- safety profile [22]: no immunogenicity, no dose-limiting toxicities, no serious side-effects
- binding of the anti-CD44 antibody DF1485 to CD44-expressing SKOV3 cells ([23]; antibody DF1485): partial inhibition
- binding of the anti-CD44 antibody IM7 ([23]; antibody IM7): did not interfere
- half-life [24]: 1.8 to 2 h
- pIC50 [25]: 7.00 to 8.00
- sensitivity of cells to cisplatin [26]: did not affect sensitivity
- sensitivity of cells to paclitaxel [26]: did not affect sensitivity
